According to patent US20210283163A1, “COMPOSITIONS AND METHODS FOR THE TREATMENT OF ACUTE AND CHRONIC PRURITIS” (Duke University, priority 2018, published 2021):

Tests used:
human DRG neurons = test: Whole-cell patch clamp, inward currents in human DRG neurons; assay type: cell-based; conditions: A967079 10 μM
Procedure: Non-diseased human DRGs were obtained from donors through National Disease Research Interchange (NDRI) with permission of exemption from the Duke University Institutional Review Board (IRB). Postmortem L3-L5 DRGs were dissected from 4 donors and delivered in ice cold culture medium to the laboratory at Duke University within 24-72 hr of the donor's death. Upon the delivery, DRGs were rapidly dissected from nerve roots and minced in a calcium-free HBSS (GIBCO). Human DRG cultures were prepared as previously reported (Chang et al., Neurosci. Bull. 2018, 34, 4-12; Han et al., Neuron 2016, 92, 1279-1293). DRGs were digested at 37° C. in a humidified CO2 incubator for 120 min with collagenase Type II (Worthington, 290 units/mg, 12 mg/mL final concentration) and dispase II (Roche, 1 unit/mg, 20 mg/mL) in PBS with 10 mM HEPES, pH adjusted to 7.4 with NaOH. DRGs were mechanically dissociated using fire-polished pipettes, filtered through a 100 μm nylon mesh and centrifuged (500 g for 5 min). The pellet was resuspended, plated on 0.5 mg/mL poly-D-lysine-coated glass coverslips, and grown in Neurobasal medium supplemented with 10% FBS, 2% B-27 supplement, and 1% penicillin/streptomycin. Whole-cell patch-clamp recordings in small (<[…]) human DRG neurons were conducted at room temperature using patch pipettes with resistances of 3-4 MΩ.
Whole-Cell Patch Clamp Recordings in HEK293 Cells, CHO Cells, and DRG Neurons. Whole-cell patch clamp recordings were performed at room temperature using an Axopatch-200B amplifier (Axon Instruments) with a Digidata 1440B (Axon Instruments). In this study, we only examined small-diameter mouse DRG neurons (<25 μM) and small-diameter human DRG neurons (<55 μM). The patch pipettes were pulled from borosilicate capillaries (World Precision Instruments) using a P-97 Flaming/Brown micropipette puller (Sutter Instrument). Pipette resistance was 4-6 MΩ for whole-cell and outside-out recording. […]

mmu-TRPA1 = molecular target: T1, mmu-TRPA1 (Mus musculus, UniProt Q8BLA8); test: Whole-cell patch clamp in CHO cells transfected with wild-type mmu-Trpa1 cDNA; assay type: cell-based; conditions: miR-711 10 μM, AITC 50 μM
T1 construct: HA; expressed in transfected cells; host or cells: CHO cells (ATCC CRL-9096), transient transfection with Lipofectamine 2000
Procedure: (§1) Constructs. The cDNAs of mouse pcDNA3.1-Trpa1, pcDNA3.1-Trpv1, pcDNA3.1-Trpv2, pcDNA3.1-Trpv3, and pcDNA3.1-Trpv4 were kindly provided Dr. Sun Work Hwang from Korea University. Mouse Trpa1 cDNA was subcloned into pCGN-HA backbone (Addgene) using In-Fusion HD Cloning Kit (Clontech Laboratories, CA). Q5 Site-Directed Mutagenesis Kit was used to generate mTrpa1 mutant (M1-M13) based on pCGN-mTrpa1.
Cell Culture and Transfection. CD4^+ Myla cell line was cultured in RPMI 1640 media (GIBCO), supplemented with 2 mM Glutamine (GIBCO), 100 U/mL IL-2 (Sigma), 100 U/mL IL-4 (Sigma), and 10% human AB serum (Sigma). HuT 102 cell line was cultured in RPMI 1640 supplemented with pyruvate, HEPES, and 10% (v/v) fetal bovine serum (HyClone). HEK293-hTRPA1 stable cell line was cultured in MEM (GIBCO) containing 2 mM Glutamine, 4 μg/mL Blasticidin, 10% FBS (v/v). B16 and CHO cells were cultured in high glucose (4.5 g/L) Dulbecco's Modified Eagle's Medium (GIBCO) containing 10% (v/v) fetal bovine serum (GIBCO). Culture media were supplemented with 50 units/mL of penicillin and 50 μg/mL streptomycin, and cultures were maintained with 5% CO2 in 37° C. incubator. Transfection (2 μg cDNA) was performed with Lipofectamine™ 2000 Reagent (Invitrogen) at 80% confluency and the transfected cells were cultured in the same media for 48 hr before electrophysiological and biochemical studies. […]

mice [1] = test: Acute pruritus induced by intradermal pruritogens, effect of peptides; assay type: in vivo, mouse; conditions: peptide 2 mM
Procedure: (§2) Behavioral Assessment for Scratching (Itch) and Wiping (Pain). Mice were shaved on the cheek or nape after a brief anesthesia with isoflurane. Before experiments, mice were habituated in small plastic chambers (14×18×12 cm) daily for two days. The room temperature and humidity remained stable for all the experiments. […] After the injection, the number of scratches in 60 min was counted. A scratch was counted when a mouse lifted its hind paw to scratch the shaved region and returned the paw to the floor or to the mouth. A bout of wiping was defined as a continuous wiping movement with a forepaw directing at the area of the injection area (Shimada and LaMotte, Pain 2008, 139, 681-687). Scratching and wiping behavior was videoed for 30 min or 60 min using Sony HDR-CX610 camera. The video was subsequently played back offline and the numbers of scratches and wipes were quantified in a blinded manner.

mice [2] = test: Back model: intradermal nape injection, scratching; assay type: in vivo, mouse; conditions: 0.01-1 mM, 10 μL
Procedure: as §2

mTRPA1 mutants (M1-M13) [3] = molecular target: T2, mTRPA1 mutants (M1-M13) (Mus musculus, UniProt Q8BLA8, L939A/P937A/Y936A); test: Whole-cell patch clamp in CHO cells transfected with mutant mTrpa1 cDNAs (M1-M13); assay type: cell-based; conditions: M13, triple mutations (Y936, P937, and L939)
T2 construct: HA; expressed in transfected cells; host or cells: CHO cells (ATCC CRL-9096), transient transfection
Procedure: as §1
(§3) Cell Culture and Transfection. CD4^+ Myla cell line was cultured in RPMI 1640 media (GIBCO), supplemented with 2 mM Glutamine (GIBCO), 100 U/mL IL-2 (Sigma), 100 U/mL IL-4 (Sigma), and 10% human AB serum (Sigma). HuT 102 cell line was cultured in RPMI 1640 supplemented with pyruvate, HEPES, and 10% (v/v) fetal bovine serum (HyClone). HEK293-hTRPA1 stable cell line was cultured in MEM (GIBCO) containing 2 mM Glutamine, 4 μg/mL Blasticidin, 10% FBS (v/v). B16 and CHO cells were cultured in high glucose (4.5 g/L) Dulbecco's Modified Eagle's Medium (GIBCO) containing 10% (v/v) fetal bovine serum (GIBCO). Culture media were supplemented with 50 units/mL of penicillin and 50 μg/mL streptomycin, and cultures were maintained with 5% CO2 in 37° C. incubator. Transfection (2 μg cDNA) was performed with Lipofectamine™ 2000 Reagent (Invitrogen) at 80% confluency and the transfected cells were cultured in the same media for 48 hr before electrophysiological and biochemical studies.
(§4) Whole-Cell Patch Clamp Recordings in HEK293 Cells, CHO Cells, and DRG Neurons. Whole-cell patch clamp recordings were performed at room temperature using an Axopatch-200B amplifier (Axon Instruments) with a Digidata 1440B (Axon Instruments). In this study, we only examined small-diameter mouse DRG neurons (<25 μM) and small-diameter human DRG neurons (<55 μM). The patch pipettes were pulled from borosilicate capillaries (World Precision Instruments) using a P-97 Flaming/Brown micropipette puller (Sutter Instrument). Pipette resistance was 4-6 MΩ for whole-cell and outside-out recording. For inward current recordings in mouse and human DRG neurons, HEK293 cells, and CHO cells, the internal solution contains (in mM): 140 CsCl, 10 EGTA, 10 HEPES, and 2 Mg-ATP, adjusted to pH 7.3 with CsOH. Whole cell recordings were performed in an extracellular solution that contains (in mM): 140 NaCl, 5 KCl, 2 MgCl2, 10 HEPES, and 10 glucose, adjusted to pH 7.4 with NaOH and osmolarity to 300-310 mOsm. […] Action potential recordings were performed in small-diameter DRG neurons, with the following solutions: i) internal pipette solution contains: 126 mM K-gluconate, 10 mM NaCl, 1 mM MgCl2, 10 mM EGTA, 10 mM HEPES and 2 mM Na-ATP, adjusted to pH 7.4 with KOH and osmolarity to 295-300 mOsm), and ii) extracellular solution contains: 140 mM NaCl, 5 mM KCl, 2 mM MgCl2, 2 mM CaCl2, 10 mM HEPES, 10 mM glucose, adjusted to pH 7.4 with KOH.

mTRPA1 mutants (M1-M13) [4] = molecular target: T3, mTRPA1 mutants (M1-M13) (Mus musculus, UniProt Q8BLA8, P937A); test: as above; assay type: cell-based; conditions: M11, single residue mutation of mP937
T3 construct: HA; expressed in transfected cells; host or cells: CHO cells (ATCC CRL-9096), transient transfection
Procedure: as §1, §3, §4

T1 sequence (Q8BLA8 whole entry): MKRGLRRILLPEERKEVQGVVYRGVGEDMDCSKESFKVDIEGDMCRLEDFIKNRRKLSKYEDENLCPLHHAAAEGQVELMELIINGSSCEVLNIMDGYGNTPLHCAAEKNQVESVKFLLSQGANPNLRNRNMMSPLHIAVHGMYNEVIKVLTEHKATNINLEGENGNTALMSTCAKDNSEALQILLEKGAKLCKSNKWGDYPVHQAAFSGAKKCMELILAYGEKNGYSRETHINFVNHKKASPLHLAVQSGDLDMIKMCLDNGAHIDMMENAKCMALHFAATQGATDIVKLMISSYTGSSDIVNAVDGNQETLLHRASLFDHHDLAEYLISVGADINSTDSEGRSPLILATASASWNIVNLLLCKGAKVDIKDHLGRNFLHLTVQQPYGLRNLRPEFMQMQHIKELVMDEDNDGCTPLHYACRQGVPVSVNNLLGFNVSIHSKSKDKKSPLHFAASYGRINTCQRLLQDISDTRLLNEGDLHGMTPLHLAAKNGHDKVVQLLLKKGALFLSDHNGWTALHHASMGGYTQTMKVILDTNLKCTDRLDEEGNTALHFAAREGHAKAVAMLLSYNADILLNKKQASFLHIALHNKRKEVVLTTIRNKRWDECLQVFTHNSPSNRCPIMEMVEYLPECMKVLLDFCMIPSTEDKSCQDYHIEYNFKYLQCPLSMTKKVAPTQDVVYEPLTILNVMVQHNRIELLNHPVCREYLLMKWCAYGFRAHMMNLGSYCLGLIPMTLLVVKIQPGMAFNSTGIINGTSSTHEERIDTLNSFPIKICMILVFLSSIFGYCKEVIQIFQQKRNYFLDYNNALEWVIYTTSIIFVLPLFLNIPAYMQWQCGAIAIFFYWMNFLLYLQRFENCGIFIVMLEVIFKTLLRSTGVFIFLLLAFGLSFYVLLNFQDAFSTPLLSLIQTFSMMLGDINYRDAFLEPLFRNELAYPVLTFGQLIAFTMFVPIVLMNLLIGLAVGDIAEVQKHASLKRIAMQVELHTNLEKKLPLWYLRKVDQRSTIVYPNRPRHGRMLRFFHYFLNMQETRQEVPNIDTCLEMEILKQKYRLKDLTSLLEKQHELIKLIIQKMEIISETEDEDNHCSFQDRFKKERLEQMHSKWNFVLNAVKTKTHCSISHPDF
T3 sequence (Q8BLA8 whole entry P937A): as the sequence (Q8BLA8 whole entry) above, with P937A counted along it
T2 sequence (Q8BLA8 whole entry Y936A/P937A/L939A): as the sequence (Q8BLA8 whole entry) above, with Y936A, P937A, L939A counted along it

Compound: CCC(=N\O)/C(C)=C/c1ccc(F)cc1 [A967079, (1E,3E)-1-(4-Fluorophenyl)-2-methyl-1-pentene-3-one oxime]
- block of miRNA-evoked inward currents in human DRG neurons (human DRG neurons): blocked

Compound: C=CCN=C=S [AITC]
- inward currents (mmu-TRPA1): induce inward currents

Compound: NH2-FRNELAYPVLTFGQL-COOH (H-FRNELAYPVLTFGQL-OH) [blocking peptide]
- effect on miR-711-induced pruritus (mice [1]; 15 μL intradermal, mmu-miR-711 1 mM, 10 μL): prevented
- effect on acute itch induced by compound 48/80 (mice [1]; 15 μL, 48/80 50 μg/10 μL): no effect
- effect on acute itch induced by chloroquine (mice [1]; 15 μL, CQ 100 μg/10 μL): no effect

Compound: miR-711: mmu-miR-711: gggacccggggagagauguaag (SEQ ID NO: 5) (GGGACCCGGGGAGAGAUGUAAG; chemistry not given here)
- scratching after intradermal injection on the nape of neck (mice [2]): dose-dependent scratching
- inward currents (mmu-TRPA1): induce inward currents
- current in mutant (mTRPA1 mutants (M1-M13) [3]): further reduction
- evoked currents in mutant (mTRPA1 mutants (M1-M13) [4]): markedly reduced
